Experiment: Plasma levels and pharmacokinetics of intravenous ITPP

With `O=P1(O)OC2C3OP(=O)(O)OP(=O)(O)OC3C3OP(=O)(O)OP(=O)(O)OC3C2OP(=O)(O)O1` (centres unmarked) [ITPP, Myo-inositol trispyrophosphate] the Tmax (cohort 1, 1866 mg/m2) was 6.0 h, the VSS (cohort 1, 1866 mg/m2) was 11.0 L and the “ITPP plasma levels: Concentration” value (cohort 1, patient 2, day 1, hour 0, sample 1_1_1) was 0 µg/mL. The “ITPP plasma levels: Concentration” value (cohort 1, patient 2, day 1, hour 3, sample 1_1_2) was 71.4 µg/mL, the “ITPP plasma levels: Concentration” value (cohort 1, patient 2, day 1, hour 6, sample 1_1_3) was 64.4 µg/mL and the “ITPP plasma levels: Concentration” value (cohort 1, patient 2, day 1, hour 8.5, sample 1_1_4) was 37.7 µg/mL. For the same compound, the “ITPP plasma levels: Concentration” value (cohort 1, patient 2, day 1, hour 9, sample 1_1_5) was 27.2 µg/mL, the “ITPP plasma levels: Concentration” value (cohort 1, patient 2, day 2, hour 0, sample 1_2_1) was 0 µg/mL and the “ITPP plasma levels: Concentration” value (cohort 1, patient 2, day 2, hour 9, sample 1_2_5) was 31.6 µg/mL. For the same compound, the “ITPP plasma levels: Concentration” value (cohort 1, patient 2, day 3, hour 0, sample 1_3_1) was 0 µg/mL, the “ITPP plasma levels: Concentration” value (cohort 1, patient 2, day 3, hour 9, sample 1_3_5) was 28.7 µg/mL and the “ITPP plasma levels: Concentration” value (cohort 1, patient 4, day 2, hour 9, sample 5_2_5) was 32.7 µg/mL. The “ITPP plasma levels: Concentration” value (cohort 1, patient 4, day 3, hour 0, sample 5_3_1) was 0 µg/mL, the “ITPP plasma levels: Concentration” value (cohort 1, patient 4, day 3, hour 9, sample 5_3_5) was 30.4 µg/mL and the “ITPP plasma levels: Concentration” value (cohort 1, patient 4, day 4, hour 0, sample 5_4_1) was 0 µg/mL. For the same compound, the “ITPP plasma levels: Concentration” value (cohort 1, patient 4, day 4, hour 9, sample 5_4_5) was 28.7 µg/mL, the “ITPP plasma levels: Concentration” value (cohort 1, patient 4, day 5, hour 0, sample 5_5_1) was 0 µg/mL and the “ITPP plasma levels: Concentration” value (cohort 1, patient 4, day 5, hour 3, sample 5_5_2) was 33.3 µg/mL. The “ITPP plasma levels: Concentration” value (cohort 1, patient 4, day 5, hour 6, sample 5_5_3) was 38.4 µg/mL, the “ITPP plasma levels: Concentration” value (cohort 1, patient 4, day 5, hour 8.5, sample 5_5_4) was 40.9 µg/mL and the “ITPP plasma levels: Concentration” value (cohort 1, patient 4, day 5, hour 9, sample 5_5_5) was 29.6 µg/mL. The “ITPP plasma levels: Concentration” value (cohort 1, patient 4, day 5, hour 10, sample 5_5_6) was 22 µg/mL, the “ITPP plasma levels: Concentration” value (cohort 1, patient 4, day 6, hour 0, sample 5_6_1) was 0 µg/mL and the “ITPP plasma levels: Concentration” value (cohort 1, patient 4, day 6, hour 9, sample 5_6_5) was 32.4 µg/mL. For the same compound, the “ITPP plasma levels: Concentration” value (cohort 1, patient 4, day 7, hour 0, sample 5_7_1) was 0 µg/mL, the “ITPP plasma levels: Concentration” value (cohort 1, patient 4, day 7, hour 9, sample 5_7_5) was 36.7 µg/mL and the “ITPP plasma levels: Concentration” value (cohort 1, patient 4, day 8, hour 0, sample 5_8_1) was 0 µg/mL. The “ITPP plasma levels: Concentration” value (cohort 1, patient 4, day 8, hour 9, sample 5_8_5) was 31.5 µg/mL, the “ITPP plasma levels: Concentration” value (cohort 1, patient 4, day 9, hour 0, sample 5_9_1) was 0 µg/mL and the “ITPP plasma levels: Concentration” value (cohort 1, patient 4, day 9, hour 3, sample 5_9_2) was 38.7 µg/mL. For the same compound, the “ITPP plasma levels: Concentration” value (cohort 1, patient 4, day 9, hour 6, sample 5_9_3) was 43.5 µg/mL, the “ITPP plasma levels: Concentration” value (cohort 1, patient 4, day 9, hour 8.5, sample 5_9_4) was 42.1 µg/mL and the “ITPP plasma levels: Concentration” value (cohort 1, patient 4, day 9, hour 9, sample 5_9_5) was 26.1 µg/mL. It also gave an AUC (cohort 2, 3732 mg/m2) of 847.4 µg·h/mL, an AUMC (cohort 2, 3732 mg/m2) of 4925.6 h2*mg/L and a CL (cohort 2, 3732 mg/m2) of 3.8 L/h. The Clast (cohort 2, 3732 mg/m2) was 55.8 µg/mL, the Cmax (cohort 2, 3732 mg/m2) was 120.6 µg/mL and the Cmin (cohort 2, 3732 mg/m2) was 0 ng/mL. For the same compound, the “Elimination rate λz” value (cohort 2, 3732 mg/m2) was 0.4 h⁻¹, the “Half life/T0.5” value (cohort 2, 3732 mg/m2) was 1.8 h and the MRT (cohort 2, 3732 mg/m2) was 1.8 h. The Tlast (cohort 2, 3732 mg/m2) was 10.0 h, the Tmax (cohort 2, 3732 mg/m2) was 6.0 h and the VSS (cohort 2, 3732 mg/m2) was 10.5 L. For the same compound, the “ITPP plasma levels: Concentration” value (cohort 2, patient 5, day 1, hour 0, sample 6_1_1) was 0 µg/mL, the “ITPP plasma levels: Concentration” value (cohort 2, patient 5, day 1, hour 3, sample 6_1_2) was 81 µg/mL and the “ITPP plasma levels: Concentration” value (cohort 2, patient 5, day 1, hour 6, sample 6_1_3) was 102 µg/mL. For the same compound, the “ITPP plasma levels: Concentration” value (cohort 2, patient 5, day 1, hour 8.5, sample 6_1_4) was 86.1 µg/mL, the “ITPP plasma levels: Concentration” value (cohort 2, patient 5, day 1, hour 9, sample 6_1_5) was 66.5 µg/mL and the “ITPP plasma levels: Concentration” value (cohort 2, patient 5, day 1, hour 10, sample 6_1_6) was 42.7 µg/mL. The “ITPP plasma levels: Concentration” value (cohort 2, patient 5, day 2, hour 0, sample 6_2_1) was 0 µg/mL, the “ITPP plasma levels: Concentration” value (cohort 2, patient 5, day 2, hour 9, sample 6_2_5) was 78.6 µg/mL and the “ITPP plasma levels: Concentration” value (cohort 2, patient 5, day 3, hour 0, sample 6_3_1) was 0 µg/mL. For the same compound, the “ITPP plasma levels: Concentration” value (cohort 2, patient 5, day 3, hour 9, sample 6_3_5) was 61.7 µg/mL, the “ITPP plasma levels: Concentration” value (cohort 2, patient 5, day 4, hour 0, sample 6_4_1) was 0 µg/mL and the “ITPP plasma levels: Concentration” value (cohort 2, patient 5, day 4, hour 9, sample 6_4_5) was 81.8 µg/mL. For the same compound, the “ITPP plasma levels: Concentration” value (cohort 2, patient 5, day 5, hour 0, sample 6_5_1) was 0 µg/mL, the “ITPP plasma levels: Concentration” value (cohort 2, patient 5, day 5, hour 3, sample 6_5_2) was 90.1 µg/mL and the “ITPP plasma levels: Concentration” value (cohort 2, patient 5, day 5, hour 6, sample 6_5_3) was 107 µg/mL. The “ITPP plasma levels: Concentration” value (cohort 2, patient 5, day 5, hour 8.5, sample 6_5_4) was 81.8 µg/mL, the “ITPP plasma levels: Concentration” value (cohort 2, patient 5, day 5, hour 9, sample 6_5_5) was 62.8 µg/mL and the “ITPP plasma levels: Concentration” value (cohort 2, patient 5, day 5, hour 10, sample 6_5_6) was 38.5 µg/mL. For the same compound, the “ITPP plasma levels: Concentration” value (cohort 2, patient 5, day 6, hour 0, sample 6_6_1) was 0 µg/mL, the “ITPP plasma levels: Concentration” value (cohort 2, patient 5, day 6, hour 9, sample 6_6_5) was 76.4 µg/mL and the “ITPP plasma levels: Concentration” value (cohort 2, patient 5, day 7, hour 0, sample 6_7_1) was 0 µg/mL. For the same compound, the “ITPP plasma levels: Concentration” value (cohort 2, patient 5, day 7, hour 9, sample 6_7_5) was 65.9 µg/mL, the “ITPP plasma levels: Concentration” value (cohort 2, patient 5, day 8, hour 0, sample 6_8_1) was 0 µg/mL and the “ITPP plasma levels: Concentration” value (cohort 2, patient 5, day 8, hour 9, sample 6_8_5) was 73.8 µg/mL. For the same compound, the “ITPP plasma levels: Concentration” value (cohort 2, patient 5, day 9, hour 0, sample 6_9_1) was 0 µg/mL, the “ITPP plasma levels: Concentration” value (cohort 2, patient 5, day 9, hour 3, sample 6_9_2) was 81.2 µg/mL and the “ITPP plasma levels: Concentration” value (cohort 2, patient 5, day 9, hour 6, sample 6_9_3) was 110 µg/mL. For the same compound, the “ITPP plasma levels: Concentration” value (cohort 2, patient 5, day 9, hour 8.5, sample 6_9_4) was 89.6 µg/mL, the “ITPP plasma levels: Concentration” value (cohort 2, patient 5, day 9, hour 9, sample 6_9_5) was 58.7 µg/mL and the “ITPP plasma levels: Concentration” value (cohort 2, patient 6, day 1, hour 0, sample 7_1_1) was 0 µg/mL. For the same compound, the “ITPP plasma levels: Concentration” value (cohort 2, patient 6, day 1, hour 3, sample 7_1_2) was 84.8 µg/mL, the “ITPP plasma levels: Concentration” value (cohort 2, patient 6, day 1, hour 6, sample 7_1_3) was 106 µg/mL and the “ITPP plasma levels: Concentration” value (cohort 2, patient 6, day 1, hour 8.5, sample 7_1_4) was 100 µg/mL. For the same compound, the “ITPP plasma levels: Concentration” value (cohort 2, patient 6, day 1, hour 9, sample 7_1_5) was 77.7 µg/mL, the “ITPP plasma levels: Concentration” value (cohort 2, patient 6, day 1, hour 10, sample 7_1_6) was 55.2 µg/mL and the “ITPP plasma levels: Concentration” value (cohort 2, patient 6, day 2, hour 0, sample 7_2_1) was 0 µg/mL. The “ITPP plasma levels: Concentration” value (cohort 2, patient 6, day 2, hour 9, sample 7_2_5) was 66.6 µg/mL, the “ITPP plasma levels: Concentration” value (cohort 2, patient 6, day 3, hour 0, sample 7_3_1) was 0 µg/mL and the “ITPP plasma levels: Concentration” value (cohort 2, patient 6, day 3, hour 9, sample 7_3_5) was 65.2 µg/mL. The “ITPP plasma levels: Concentration” value (cohort 2, patient 6, day 4, hour 0, sample 7_4_1) was 0 µg/mL, the “ITPP plasma levels: Concentration” value (cohort 2, patient 6, day 4, hour 9, sample 7_4_5) was 67.1 µg/mL and the “ITPP plasma levels: Concentration” value (cohort 2, patient 6, day 5, hour 0, sample 7_5_1) was 0 µg/mL. For the same compound, the “ITPP plasma levels: Concentration” value (cohort 2, patient 6, day 5, hour 3, sample 7_5_2) was 78.6 µg/mL, the “ITPP plasma levels: Concentration” value (cohort 2, patient 6, day 5, hour 6, sample 7_5_3) was 98 µg/mL and the “ITPP plasma levels: Concentration” value (cohort 2, patient 6, day 5, hour 8.5, sample 7_5_4) was 82.7 µg/mL. The “ITPP plasma levels: Concentration” value (cohort 2, patient 6, day 5, hour 9, sample 7_5_5) was 41.4 µg/mL, the “ITPP plasma levels: Concentration” value (cohort 2, patient 6, day 5, hour 10, sample 7_5_6) was 40.6 µg/mL and the “ITPP plasma levels: Concentration” value (cohort 2, patient 6, day 6, hour 0, sample 7_6_1) was 0 µg/mL. The “ITPP plasma levels: Concentration” value (cohort 2, patient 6, day 6, hour 9, sample 7_6_5) was 60.1 µg/mL, the “ITPP plasma levels: Concentration” value (cohort 2, patient 6, day 7, hour 0, sample 7_7_1) was 0 µg/mL and the “ITPP plasma levels: Concentration” value (cohort 2, patient 6, day 7, hour 9, sample 7_7_5) was 72.5 µg/mL. For the same compound, the “ITPP plasma levels: Concentration” value (cohort 2, patient 6, day 8, hour 0, sample 7_8_1) was 0 µg/mL, the “ITPP plasma levels: Concentration” value (cohort 2, patient 6, day 8, hour 9, sample 7_8_5) was 75.7 µg/mL and the “ITPP plasma levels: Concentration” value (cohort 2, patient 6, day 9, hour 0, sample 7_9_1) was 0 µg/mL. For the same compound, the “ITPP plasma levels: Concentration” value (cohort 2, patient 6, day 9, hour 3, sample 7_9_2) was 84.2 µg/mL, the “ITPP plasma levels: Concentration” value (cohort 2, patient 6, day 9, hour 6, sample 7_9_3) was 116 µg/mL and the “ITPP plasma levels: Concentration” value (cohort 2, patient 6, day 9, hour 8.5, sample 7_9_4) was 105 µg/mL. For the same compound, the “ITPP plasma levels: Concentration” value (cohort 2, patient 6, day 9, hour 9, sample 7_9_5) was 82 µg/mL, the “ITPP plasma levels: Concentration” value (cohort 2, patient 6, day 9, hour 10, sample 7_9_6) was 60.5 µg/mL and the “ITPP plasma levels: Concentration” value (cohort 2, patient 7, day 1, hour 0, sample 8_1_1) was 0 µg/mL. For the same compound, the “ITPP plasma levels: Concentration” value (cohort 2, patient 7, day 1, hour 3, sample 8_1_2) was 81.8 µg/mL, the “ITPP plasma levels: Concentration” value (cohort 2, patient 7, day 1, hour 6, sample 8_1_3) was 117 µg/mL and the “ITPP plasma levels: Concentration” value (cohort 2, patient 7, day 1, hour 8.5, sample 8_1_4) was 100 µg/mL. The “ITPP plasma levels: Concentration” value (cohort 2, patient 7, day 1, hour 9, sample 8_1_5) was 79.1 µg/mL and the “ITPP plasma levels: Concentration” value (cohort 2, patient 7, day 1, hour 10, sample 8_1_6) was 67.7 µg/mL.

Reference: publication PMC8217170, “Phase Ib dose-escalation study of the hypoxia-modifier Myo-inositol trispyrophosphate in patients with hepatopancreatobiliary tumors” (Nature Communications, 2021)
